Reference: article PMC8748687 (Nature Communications, 2022)

These sequences were tested on TCR YLQ7. Settings: not given.
Type: binding, human

Row | Sequence | Measured TCR ΔΔG, YLQ7 [kcal/mol]
1 | YLAPRTFML [GD_pangolin YLQ ortholog] | 1.7

Same assay, conditions: read-out: KD of TCR YLQ7 for peptide–HLA-A2

Row | Sequence | Kd [µM]
2 | KLQPLTFLL [MERS-KLQ] | > 50
3 | PLSKRQYLL [HKU1-PLS] | > 50
4 | PLTSRQYLL [OC43-PLT] | > 50
5 | YLKPTTFML [SARS-YLK] | > 50

The sequences below were run against TCR RLQ3. Settings: read-out: KD of TCR RLQ3 for peptide–HLA-A2.
Type: binding, human

Row | Sequence | Kd [µM]
6 | RLAALNAFV [NL63-RLA] | > 100
7 | RLAALNVFV [229E-RLA] | > 100
8 | RLTALNAYV [HKU1-RLT] | > 100
9 | RLTTLNAFV [MERS-RLT] | > 100
